Test results: US12171766B2, “Methods of treating patients suffering from brain injury and methods of increasing the value of the extended Glasgow Outcome Scale of patients suffering from brain injury” (VERINOS OPERATIONS GMBH, priority 2021, dated 2024)

Tested on: adult intensive care patients with acute moderate and severe TBI
Experiment: NOSTRA phase III trial: Extended Glasgow Outcome Scale (eGOS) at 3 and 6 months, Ronopterin 17 mg/kg infused over 48 hours vs placebo, incl. post hoc subgroup analyses
Assay type: in vivo, human
Method: A phase III trial of Ronopterin infusion to adult TBI patients (18-60 years) with acute moderate and severe TBI was performed. Based on the results of the earlier phase II study, the NOSTRA (NO Synthase in TRAumatic Brain Injury) phase III trial was designed to detect clinically relevant differences in clinical outcome (Extended Glasgow Outcome Score at 6 months after injury) as primary endpoint.
NOSTRA III was a multicentre, prospective, two parallel groups, blinded, placebo-controlled, randomised phase III trial of Ronopterin infusion for 48 hours in adult intensive care patients with acute moderate and severe TBI. […] The detailed study protocol is described by Tegtmeier et al. Efficacy of Ronopterin (VAS203) in Patients with Moderate and Severe Traumatic Brain Injury (NOSTRA phase III trial): study protocol of a confirmatory, placebo-controlled, randomised, double blind, multi-centre study. Trials. 2020. A total of 224 evaluable patients with moderate and severe TBI were enrolled in 32 centres in Austria, France, Germany, Spain, and United Kingdom. The trial started on 24 Aug. 2016 with last-patient last-visit on 17 Jun. 2020.
Patients between 18 and 60 years of age with Glasgow Coma Score≥3 requiring intracranial pressure (ICP) monitoring were enrolled. Other inclusion criteria were TBI within the last 18 hours but at least 6 hours after the injury, which were expected to survive more than 24 hours after admission.
Ronopterin and placebo (0.9% saline) were infused continuously via central venous catheter at a constant rate. A total dose of 17 mg/kg body weight of Ronopterin was infused for 48 hours (daily dose 8.5 mg/kg body weight).
The primary outcome was the difference between eGOS in Ronopterin and placebo treated patients at 6 months after trauma. The eGOS was determined by a face to face meeting by trained assessors.
The null-hypothesis of no shift across the 8 ordered categories of eGOS for the two treatment groups was tested after six months based on a proportional odds model stratified by age (18-39 years and 40-60 years). The treatment effect was estimated using ordinal Logistic regression model as the (proportional) odds ratio of Ronopterin versus Placebo. Treatment and age (18-39 years and 40-60 years) were included in the model. The proportional odds assumption was tested using a Chi-Square Score Test.
As secondary efficacy endpoint the eGOS at 3 months was analysed using the same statistics.
The main objective of the post hoc analyses was to estimate the effect size of VAS203 compared with placebo for the primary endpoint eGOS-I in the subgroups time to infusion ≤12 hours and >12 hours. Supportive analyses were conducted by age group (<40 years, ≥40 years) because age group was used as a stratification factor in the study. Comparability between treatment groups regarding demographics as well as severity and location of disease was investigated using similar methods as in the main CSR.
The proportions of patients per eGOS-I level at 3 months and at 6 months were calculated. For the change in eGOS-I over time, the proportion of patients with changes from 3 to 6 months were calculated by eGOS-I level, and in addition categorised as decreased (i.e. any decrease in eGOS-I level from 3 to 6 months), unchanged (i.e. no change in eGOS-I level from 3 to 6 months), and increased (i.e. any increase in eGOS-I level from 3 to 6 months).
Ordinal logistic regression was used for the analysis of eGOS-I at 3 months and at 6 months, including treatment group and age group (<40 years, ≥40 years) as factors in the model. Estimated odds ratios for the comparison of the VAS203 and placebo groups of >1 mean that eGOS-I was higher in the VAS203 group than in the placebo group across the 8 levels, whereas odds ratios of <1 mean that eGOS-I was lower in the VAS203 group than in the placebo group. Odds ratios together with their 95% CIs were used to estimate and assess the size of the treatment effect of VAS203 compared to placebo. […]

[1] = female patients, ≤12 hours (FIGS. 14A-D)

Compound: CC(O)C(O)C1CNc2nc(N)nc(N)c2N1 [Ronopterin, 4-Amino-(6R,S)-5,6,7,8-tetrahydro-L-biopterin]
- number of patients with increase in eGOS by at least 2 levels from 3 to 6 months (age 40-60 years, all times to infusion (FIG. 8C)): 10
- more patients with higher increase in eGOS over time vs placebo: significance (age 40-60 years, all times to infusion (FIG. 8D)): not (statistically) significant
- increase in eGOS levels from 3 to 6 months (age 40-60 years, ≤12 hours (FIG. 9A)): up to 4 levels
- number of patients with increase in eGOS by at least 2 levels from 3 to 6 months (age 40-60 years, ≤12 hours (FIG. 9C)): 5
- Odds ratio for increases in eGOS levels from 3 to 6 months (age group 18-39 (<40), early infusion (≤12 hours), vs placebo): 4.398
- patients with an increase in their eGOS levels (eGOS responders) vs placebo (age ≥40 years, ≤12 hours (FIGS. 9A-D)): trend to more patients with an increase in their eGOS levels
- increase in eGOS levels from 3 to 6 months (all ages, >12 hours (FIG. 5E)): up to 4 levels
- number of patients with increase in eGOS by at least 2 levels from 3 to 6 months (all ages, early infusion ≤12 hours (FIG. 5C)): 9
- number of patients with increase in eGOS by at least 2 levels from 3 to 6 months (all ages, late infusion >12 hours (FIG. 5G)): 15
- increase in eGOS levels from 3 to 6 months (all ages, ≤12 hours (FIG. 5A)): up to 4 levels
- increase in proportion of patients with an eGOS increase by at least 1 level compared to Placebo: significance (all ages, ≤12 hours (FIGS. 5A-D)): significant
- less patients with a decrease in eGOS over time vs placebo: significance (all patients, all times to infusion): not (statistically) significant
- increase in eGOS levels from 3 to 6 months (all patients, all times to infusion (FIG. 4A)): up to 4 levels
- number of patients with increase in eGOS by at least 2 levels from 3 to 6 months (all patients, all times to infusion (FIG. 4C)): 24
- more patients with higher increase in eGOS over time vs placebo: significance (all patients, all times to infusion (FIG. 4D)): not (statistically) significant
- overall eGOS-I rating at 6 months, Ronopterin vs placebo (primary efficacy endpoint) (all patients, ordinal logistic regression): No difference
- increase in eGOS levels from 3 to 6 months (female patients, >12 hours (FIG. 14E)): up to 2 levels
- number of patients with increase in eGOS by at least 2 levels from 3 to 6 months (female patients, >12 hours (FIG. 14G)): 2
- increase in eGOS levels from 3 to 6 months (female patients, all times to infusion (FIG. 13A)): up to 2 levels
- number of patients with increase in eGOS by at least 2 levels from 3 to 6 months (female patients, all times to infusion (FIG. 13C)): 2
- less female patients with higher increase in eGOS over time vs placebo: significance (female patients, all times to infusion (FIG. 13D)): not (statistically) significant
- increase in proportion of patients with Good Recovery (eGOS 7 and 8) from 3 to 6 months, compared to Placebo (female patients, early infusion ≤12 hours (FIG. 18)): exceeding the proportion in Placebo-treated patients
- increase in proportion of patients with Good Recovery (eGOS 7 and 8) from 3 to 6 months, compared to Placebo (female patients, late infusion >12 hours (FIG. 18)): exceeding the proportion in Placebo-treated patients
- increase in eGOS levels from 3 to 6 months (female patients, ≤12 hours (FIG. 14A)): up to 2 levels
- number of patients with increase in eGOS by at least 2 levels from 3 to 6 months (female patients, ≤12 hours (FIG. 14C)): 0
- Good Recovery at 3 months vs placebo [1]: higher Good Recovery at 3 months
- eGOS responders vs placebo [1]: less female eGOS responders
- increase in eGOS levels from 3 to 6 months (male patients, >12 hours (FIG. 12E)): up to 4 levels
- number of patients with increase in eGOS by at least 2 levels from 3 to 6 months (male patients, >12 hours (FIG. 12G)): 13
- increase in eGOS levels from 3 to 6 months (male patients, all times to infusion (FIG. 11A)): up to 4 levels
- number of patients with increase in eGOS by at least 2 levels from 3 to 6 months (male patients, all times to infusion (FIG. 11C)): 22
- more patients with higher increase in eGOS over time vs placebo: significance (male patients, all times to infusion (FIG. 11D)): not (statistically) significant
- patients with a decrease in eGOS over time vs placebo (male patients, all times to infusion, p=0.04): significantly less
- increase in proportion of patients with Good Recovery (eGOS 7 and 8) from 3 to 6 months, compared to Placebo (male patients, early infusion ≤12 hours (FIG. 17)): exceeding the proportion in Placebo-treated patients
- increase in proportion of patients with Good Recovery (eGOS 7 and 8) from 3 to 6 months, compared to Placebo (male patients, late infusion >12 hours (FIG. 17)): less pronounced compared to Placebo-treated patients
- increase in eGOS levels from 3 to 6 months (male patients, ≤12 hours (FIG. 12A)): up to 4 levels
- number of patients with increase in eGOS by at least 2 levels from 3 to 6 months (male patients, ≤12 hours (FIG. 12C)): 9
- increase in proportion of patients with an eGOS increase by at least 1 level compared to Placebo: significance (male patients, ≤12 hours (FIGS. 12A-D)): significant
- median eGOS at 6 months (time to infusion >12 hours): 5
- proportion of patients with Good Recovery (eGOS 7 and 8) at 6 months (time to infusion >12 hours): 25%
- increase of proportion of patients with a Good Recovery at 6 months compared to the Placebo group (time to infusion ≤12 hours): 61%
- median eGOS at 6 months (time to infusion ≤12 hours): 6
- proportion of patients with Good Recovery (eGOS 7 and 8) at 6 months (time to infusion ≤12 hours): 37%
- NNT for Good Recovery (eGOS 7 and 8) at 6 months (time to infusion ≤12 hours, vs placebo): 8
